# Test results reported in the supplement of paper PMC11451515.
# Tested on: SEM cells
# Test: cell viability relative to DMSO control; higher = less cytotoxic
# Conditions: 48 h
# Method in brief: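 NOMO1 or SEM cells were plated at 500 cells/well and P12-Ichikawa cells at 1000 cells/well in 1536-well plates (5 μl), after each leukemia line had been adapted for at least four passages in each medium. Pin dosing delivered library compounds in DMSO at 11 threefold concentrations, 47 μM to 0.79 nM. CellTiter-Glo One luminescence was read after 48 h at 37°C. Viability is reported as a per-plate percentage of DMSO wells, with cell-free wells as background.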
# [1] = HPLM + 10% dialyzed FBS, 0.000781 µM
# [2] = HPLM + 10% dialyzed FBS, 0.00234 µM
# [3] = HPLM + 10% dialyzed FBS, 0.00702 µM
# [4] = HPLM + 10% dialyzed FBS, 0.0211 µM
# [5] = HPLM + 10% dialyzed FBS, 0.0632 µM
# [6] = HPLM + 10% dialyzed FBS, 0.19 µM
# [7] = HPLM + 10% dialyzed FBS, 0.569 µM
# [8] = HPLM + 10% dialyzed FBS, 1.71 µM
# [9] = HPLM + 10% dialyzed FBS, 5.12 µM
# [10] = HPLM + 10% dialyzed FBS, 15.4 µM
# [11] = HPLM + 10% dialyzed FBS, 46.1 µM
# [12] = RPMI 5 mM glucose + 10% FBS, 0.000781 µM
# [13] = RPMI 5 mM glucose + 10% FBS, 0.00234 µM
# [14] = RPMI 5 mM glucose + 10% FBS, 0.00702 µM
# [15] = RPMI 5 mM glucose + 10% FBS, 0.0211 µM
# [16] = RPMI 5 mM glucose + 10% FBS, 0.0632 µM
# [17] = RPMI 5 mM glucose + 10% FBS, 0.19 µM
# [18] = RPMI 5 mM glucose + 10% FBS, 0.569 µM
# [19] = RPMI 5 mM glucose + 10% FBS, 1.71 µM
# [20] = RPMI 5 mM glucose + 10% FBS, 5.12 µM
# [21] = RPMI 5 mM glucose + 10% FBS, 15.4 µM
# [22] = RPMI 5 mM glucose + 10% FBS, 46.1 µM
# [23] = RPMI 5 mM glucose + 10% dialyzed FBS, 0.000781 µM
# [24] = RPMI 5 mM glucose + 10% dialyzed FBS, 0.00234 µM
# [25] = RPMI 5 mM glucose + 10% dialyzed FBS, 0.00702 µM
# [26] = RPMI 5 mM glucose + 10% dialyzed FBS, 0.0211 µM
# [27] = RPMI 5 mM glucose + 10% dialyzed FBS, 0.0632 µM
# [28] = RPMI 5 mM glucose + 10% dialyzed FBS, 0.19 µM
# [29] = RPMI 5 mM glucose + 10% dialyzed FBS, 0.569 µM
# [30] = RPMI 5 mM glucose + 10% dialyzed FBS, 1.71 µM
# [31] = RPMI 5 mM glucose + 10% dialyzed FBS, 5.12 µM
# [32] = RPMI 5 mM glucose + 10% dialyzed FBS, 15.4 µM
# [33] = RPMI 5 mM glucose + 10% dialyzed FBS, 46.1 µM
Structure (SMILES),cell viability [1] [%],cell viability [2] [%],cell viability [3] [%],cell viability [4] [%],cell viability [5] [%],cell viability [6] [%],cell viability [7] [%],cell viability [8] [%],cell viability [9] [%],cell viability [10] [%],cell viability [11] [%],cell viability [12] [%],cell viability [13] [%],cell viability [14] [%],cell viability [15] [%],cell viability [16] [%],cell viability [17] [%],cell viability [18] [%],cell viability [19] [%],cell viability [20] [%],cell viability [21] [%],cell viability [22] [%],cell viability [23] [%],cell viability [24] [%],cell viability [25] [%],cell viability [26] [%],cell viability [27] [%],cell viability [28] [%],cell viability [29] [%],cell viability [30] [%],cell viability [31] [%],cell viability [32] [%],cell viability [33] [%]
N[S+](=O)([O-])OC[C@@H]1C[C@@H](n2ccc3c(N[C@H]4CCc5ccccc54)ncnc32)C[C@@H]1O,96.3,98.3,104,94.2,105,122,101,53.1,27.8,14.2,7.9,101,121,119,101,101,117,113,48.4,24.5,10.3,8.49,90.8,95.4,95.7,92.1,97.3,111,103,35.8,23.8,12.1,8.74
CC/1=C(/N2[C@H](SC1)[C@H](NC(=O)C(N)C3=CC=CC=C3)C2=O)C(O)=O (stereo partly specified),99.3,113,119,110,108,120,120,124,114,126,131,128,118,117,132,155,138,129,141,136,122,131,115,119,137,143,129,140,132,142,132,130,134
CC(C)(C)[C@H](NC(=O)c1ccc(N)c(Cl)c1)C(=O)N1CCC[C@H]1C(=O)N[C@H](C#N)CC(=O)O,99.5,105,109,129,127,125,113,113,123,140,130,107,107,129,118,118,124,115,120,100,134,110,116,101,117,111,117,116,117,118,117,123,125
CCOC(=O)/C=C/[C@H](C[C@@H]1CCNC1=O)NC(=O)[C@@H](CC(=O)[C@@H](NC(=O)c1cc(C)on1)C(C)C)Cc1ccc(F)cc1,90.8,101,103,90.4,111,116,110,116,115,113,105,115,121,118,79.8,127,116,123,127,115,97.3,104,100,120,119,82.5,136,133,128,127,129,132,108
NC(=O)OCC(COC(N)=O)c1ccccc1,91,99.6,102,87.3,101,86.1,103,104,92.8,91,90.6,119,121,104,119,113,113,102,115,99.8,117,105,99.7,107,99.4,115,111,99.9,109,99,97.9,101,105
CC(C)(O)c1cc2nc(-c3cnc(N)nc3)nc(N3CCOCC3)c2s1,122,125,99.7,113,106,106,77.2,59.9,44.5,41,38,82.9,79.1,74.3,76,78.2,68.4,57.1,39.1,29.1,26.7,23.3,106,113,97.7,107,105,94.7,81.4,52.3,48.1,47.8,37.3
CC(O)C1C2C(C)\C(=C(/N2C1=O)C(O)=O)SC3CNC(C3)C(=O)N(C)C (stereo unspecified),79.6,64.9,84,88.8,90.4,81.4,86.7,82.3,90.7,77.9,78.5,80.9,77.2,85.2,90.7,84.1,75.7,92.2,85.4,90.7,83.9,90.6,86,68.8,98.7,92.7,104,107,90.8,90.2,104,88.3,73.9
